These results are taken from patent US8008291B2 (Mimetica Pty Ltd, priority 2008, dated 2011).

A value given as a limit tells only on which side of the number the result lay.

T1 sequence (P33032 whole entry): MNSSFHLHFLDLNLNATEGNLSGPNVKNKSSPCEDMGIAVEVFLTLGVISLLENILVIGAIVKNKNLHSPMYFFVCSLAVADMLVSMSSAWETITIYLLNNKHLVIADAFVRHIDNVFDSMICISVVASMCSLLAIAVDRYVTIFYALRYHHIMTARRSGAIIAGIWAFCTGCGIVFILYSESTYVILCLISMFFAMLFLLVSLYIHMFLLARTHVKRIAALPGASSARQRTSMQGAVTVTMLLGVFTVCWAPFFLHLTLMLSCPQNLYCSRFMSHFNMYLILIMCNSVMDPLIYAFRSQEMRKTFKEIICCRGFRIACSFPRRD

The test concerns the target T1, human MC5R (hMC5R) (Homo sapiens, UniProt P33032).
T1 construct: purchased Perkin Elmer RBXMC5M400UA
Put plainly: Human MC5R radioligand binding assay (membranes, [125I] NDP-MSH displacement). Particulars: hMC5R binding; tested as trifluoroacetate or hydrochloride salts, or free bases; read-out: MC5R radioligand IC50. The method, boiled down:
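Frozen human MC5R membranes incubated with test compound and in-house iodogen-labeled, HPLC-purified [125I]NDP-MSH for 1 hr at 37° C. Binding measured as displacement of the radioligand.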
Consider `CC[C@H](CN1CC[C@@H](CNC(=O)c2ccc3cc(Cl)ccc3c2)N[C@@H](CCNC(=N)N)C1=O)c1ccccc1` [Compound 457, 6-chloro-N-(((3S,5S)-3-(2-guanidinoethyl)-2-oxo-1-((S)-2-phenylbutyl)-1,4-diazepan-5-yl)methyl)-2-naphthamide], for which the IC50 is < 100 nM.

As for `CC[C@H](CN1CC[C@@H](CNC(=O)c2ccc3cc(Cl)ccc3c2)N[C@@H](CCNC(=N)NC)C1=O)c1ccccc1` [Compound 458, 6-chloro-N-(((3S,5S)-3-(2-(3-methylguanidino)ethyl)-2-oxo-1-((S)-2-phenylbutyl)-1,4-diazepan-5-yl)methyl)-2-naphthamide], the IC50 was < 100 nM. As for `CC[C@@H](CN1CC[C@@H](CNC(=O)c2ccc(Cl)c(Cl)c2)N[C@@H](CCN2CCCCC2)C1=O)C(C)C` [Compound 461, 3,4-dichloro-N-(((3S,5S)-1-((R)-2-ethyl-3-methylbutyl)-2-oxo-3-(2-(piperidin-1-yl)ethyl)-1,4-diazepan-5-yl)methyl)benzamide], the figure is < 100 nM; as for `CC[C@H](CN1CC[C@@H](CNC(=O)c2ccc(Cl)c(Cl)c2)N[C@@H](CCN2CCCCC2)C1=O)C(C)C` [Compound 462, 3,4-dichloro-N-(((3S,5S)-1-((S)-2-ethyl-3-methylbutyl)-2-oxo-3-(2-(piperidin-1-yl)ethyl)-1,4-diazepan-5-yl)methyl)benzamide], < 100 nM; as for `CC[C@H](CN1CC[C@@H](CNC(=O)c2ccc3cc(Cl)ccc3c2)N[C@@H](CC(C)(C)N)C1=O)c1ccccc1` [Compound 463, N-(((3S,5S)-3-(2-amino-2-methylpropyl)-2-oxo-1-((S)-2-phenylbutyl)-1,4-diazepan-5-yl)methyl)-6-chloro-2-naphthamide], < 1000 nM. As for `CC[C@H](CN1CC[C@@H](CNC(=O)c2ccc(Cl)c(Cl)c2)N[C@@H](CCN)C1=O)c1ccccc1` [Compound 464, N-(((3S,5S)-3-(2-aminoethyl)-2-oxo-1-((S)-2-phenylbutyl)-1,4-diazepan-5-yl)methyl)-3,4-dichlorobenzamide], the figure is < 1000 nM; as for `CC[C@H](CN1CC[C@@H](CNC(=O)c2ccc(Cl)c(Cl)c2)N[C@@H](CCNC(C)C)C1=O)c1ccccc1` [Compound 465, 3,4-dichloro-N-(((3S,5S)-3-(2-(isopropylamino)ethyl)-2-oxo-1-((S)-2-phenylbutyl)-1,4-diazepan-5-yl)methyl)benzamide], < 100 nM; as for `NCC[C@@H]1N[C@H](CNC(=O)c2ccc3cc(Cl)ccc3c2)CCN(Cc2cc(Cl)cc(Cl)c2)C1=O` [Compound 466, N-(((3S,5S)-3-(2-aminoethyl)-1-(3,5-dichlorobenzyl)-2-oxo-1,4-diazepan-5-yl)methyl)-6-chloro-2-naphthamide], < 100 nM.

On to `O=C(NC[C@@H]1CCN(Cc2cc(Cl)cc(Cl)c2)C(=O)[C@H](CCN2CCCCC2)N1)c1ccc2cc(Cl)ccc2c1` [Compound 467, 6-chloro-N-(((3S,5S)-1-(3,5-dichlorobenzyl)-2-oxo-3-(2-(piperidin-1-yl)ethyl)-1,4-diazepan-5-yl)methyl)-2-naphthamide], for which the IC50 is < 100 nM.

Turning to `CC[C@@H](CN1CC[C@@H](CNC(=O)c2ccc3cc(Cl)ccc3c2)N[C@@H](CCN)C1=O)C(C)C` [Compound 469, N-(((3S,5S)-3-(2-aminoethyl)-1-((R)-2-ethyl-3-methylbutyl)-2-oxo-1,4-diazepan-5-yl)methyl)-6-chloro-2-naphthamide], the IC50 was < 1000 nM. To `CC[C@H](CN1CC[C@@H](CNC(=O)c2ccc3cc(Cl)ccc3c2)N[C@@H](CCN)C1=O)C(C)C` [Compound 470, N-(((3S,5S)-3-(2-aminoethyl)-1-((S)-2-ethyl-3-methylbutyl)-2-oxo-1,4-diazepan-5-yl)methyl)-6-chloro-2-naphthamide] belongs < 1000 nM.
